Experimental data taken from patent US9149536B2, “Conjugated antimicrobial agents” (priority 2009, dated 2015).
Converted amounts (≈) assume the structure as drawn. Where two headings read alike, the source gives them in different places.

Key:
[1] = system: E. coli R477-100; assay: MIC, double-microdilution, E. coli R477-100; format: cell-based, Escherichia coli
[2] = system: E. coli ATCC 25922; assay: MIC, double-microdilution, E. coli ATCC 25922; format: cell-based, Escherichia coli; conditions: for MIC E. coli ATCC 25922: Table 4
[3] = system: E. coli AG100B; assay: MIC, double-microdilution, E. coli AG100B; format: cell-based, Escherichia coli
Excerpt: AG100B and AG100A are two kanamycin resistant Escherichia coli strains expressing APH(3′)-I aminoglycoside resistance enzyme.

[4] = system: E. coli AG100A; assay: MIC, double-microdilution, E. coli AG100A; format: cell-based, Escherichia coli
[5] = system: B. subtilis ATCC 6633; assay: MIC, double-microdilution, B. subtilis ATCC 6633; format: cell-based; conditions: for MIC B. subtilis ATCC 6633: Table 4
[6] = system: MRSA ATCC 43300; assay: microbe, parasite or virus in culture; format: cell-based, S. aureus; conditions: Table 4
[7] = system: E. coli BL21/pETSACG1; assay: microbe, parasite or virus in culture; format: cell-based; conditions: for MIC ratio BL21/pETSACG1 to BL21: MIC resistant strain divided by MIC background strain; for MIC BL21/pETSACG1: expressed enzyme APH(3′)-IIIa
Experimental: (§1) For this purpose, exemplary conjugates, according to some embodiments of the present invention, were tested against five isogenic E. coli strains. E. coli (pSF815) and E. coli (pET9d) are laboratory resistant strains derived by transformation of E. coli XL1 blue (background strain) with the pSF815 and pET9d plasmids, respectively. […] The last two isogenic strains used were E. coli BL21 (background strain) and E. coli (pETSACG1). […] These three enzymes are among the most prevalent modes of resistance found in aminoglycosides resistance strains.
(§2) The MIC ratios were calculated by dividing the MIC value against resistant strain to that against the respective background strain.

[8] = system: E. coli BL21; assay: microbe, parasite or virus in culture; format: cell-based; conditions: background strain
Experimental: as §1, §2

[9] = system: E. coli XL1 blue/pET9d; assay: microbe, parasite or virus in culture; format: cell-based; conditions: for MIC ratio XL1 blue/pET9d to XL1 blue: MIC resistant strain divided by MIC background strain; for MIC XL1 blue/pET9d: expressed enzyme APH(3′)-Ia
Experimental: as §1, §2

[10] = system: E. coli XL1 blue/pSF815; assay: microbe, parasite or virus in culture; format: cell-based; conditions: for MIC ratio XL1 blue/pSF815 to XL1 blue: MIC resistant strain divided by MIC background strain; for MIC XL1 blue/pSF815: expressed enzyme AAC(6′)-APH(2″)
Experimental: as §1, §2

[11] = system: E. coli XL1 blue; assay: microbe, parasite or virus in culture; format: cell-based; conditions: for MIC XL1 blue: background strain
Experimental: as §1, §2

[12] = molecular target: T1, E. coli TopoIV (Escherichia coli, UniProt P0AFI2+P20083); assay: TopoIV relaxation assay; format: biochemical
T1 construct: purchased Inspiralis Ltd
Experimental: DNA relaxation activity was assayed with supercoiled pBR322 DNA as a substrate (Inspiralis Ltd) according to the manufacturer's protocol. The standard reaction mixture (20 μl) contained 40 mM HEPES-KOH pH 7.6, 100 mM potassium glutamate, 10 mM Mg(OAc)2, 10 mM dithiothreitol, 1 mM ATP, 50 μg/ml albumin, 5 ng/μl […] pBR322, and TopoIV protein. The reaction mixture was incubated at 37° C. for 30 minutes, and then was terminated by addition of 2 μl 0.5 M EDTA, 3.5 μl loading dye and 20 μl chloroform/isoamyl alcohol (24:1) mixture. […] One unit of relaxation activity was defined as the amount of TopoIV required to relax 0.1 μg of plasmid in 30 minutes.
(§3) Relaxation assays were conducted with E. coli TopoIV.

[13] = system: bacterial protein synthesis; assay: In vitro coupled transcription/translation assay, E. coli S30 extract; format: biochemical; conditions: luciferase readout
Experimental: Protein translation inhibition by the different compounds was quantified in a coupled transcription/translation assay by using E. coli S30 extracts for circular DNA with the pBEST/uc plasmid (Promega), according to the manufacturer's protocol.
Translation reactions (25 μl) that contained variable concentrations of the tested compound were incubated at 37° C. for 60 minutes, cooled on ice for 5 minutes, and diluted with a dilution reagent (tris-phosphate buffer (25 mM, pH 7.8), DTT (2 mM), 1,2-diaminocyclohexanetetraacetate (2 mM), glycerol (10%), Triton X-100 (1%) and BSA (1 mg/ml)) into 96-well plates. The luminescence was measured immediately after the addition of the Luciferase Assay Reagent (50 μl; Promega), and the light emission was recorded with a Victor3™ Plate Reader (Perkin-Elmer). The concentration of half-maximal inhibition (IC50) was obtained from fitting concentration-response curves to the data of at least two independent experiments by using Grafit 5 software (Leatherbarrow, R. J. Erithacus Software Ltd: Horley, U.K., 2001).
as §3

[14] = molecular target: E. coli DNA gyrase (Escherichia coli, UniProt P0AES4+P0AES6)
[15] = molecular target: T2, APH(3′)-IIIa enzyme (Enterococcus faecalis, UniProt P0A3Y5); format: biochemical
T2 construct: made in house; host or cells: E. coli BL21 carrying pETSACG1 (inferred)

[16] = Table 4, kanamycin resistant, APH(3′)-I
[17] = compound as substrate of APH(3′)-IIIa

T2 sequence (P0A3Y5 whole entry): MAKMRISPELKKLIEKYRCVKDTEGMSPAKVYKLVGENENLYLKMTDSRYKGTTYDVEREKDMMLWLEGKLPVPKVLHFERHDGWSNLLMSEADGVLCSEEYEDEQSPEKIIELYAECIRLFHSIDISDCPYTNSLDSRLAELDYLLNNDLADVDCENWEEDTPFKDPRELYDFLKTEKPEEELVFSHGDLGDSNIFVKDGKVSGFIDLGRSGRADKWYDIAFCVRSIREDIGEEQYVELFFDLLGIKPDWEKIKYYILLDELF
E. coli DNA gyrase, sequence (P0AES4 whole entry, one chain of several): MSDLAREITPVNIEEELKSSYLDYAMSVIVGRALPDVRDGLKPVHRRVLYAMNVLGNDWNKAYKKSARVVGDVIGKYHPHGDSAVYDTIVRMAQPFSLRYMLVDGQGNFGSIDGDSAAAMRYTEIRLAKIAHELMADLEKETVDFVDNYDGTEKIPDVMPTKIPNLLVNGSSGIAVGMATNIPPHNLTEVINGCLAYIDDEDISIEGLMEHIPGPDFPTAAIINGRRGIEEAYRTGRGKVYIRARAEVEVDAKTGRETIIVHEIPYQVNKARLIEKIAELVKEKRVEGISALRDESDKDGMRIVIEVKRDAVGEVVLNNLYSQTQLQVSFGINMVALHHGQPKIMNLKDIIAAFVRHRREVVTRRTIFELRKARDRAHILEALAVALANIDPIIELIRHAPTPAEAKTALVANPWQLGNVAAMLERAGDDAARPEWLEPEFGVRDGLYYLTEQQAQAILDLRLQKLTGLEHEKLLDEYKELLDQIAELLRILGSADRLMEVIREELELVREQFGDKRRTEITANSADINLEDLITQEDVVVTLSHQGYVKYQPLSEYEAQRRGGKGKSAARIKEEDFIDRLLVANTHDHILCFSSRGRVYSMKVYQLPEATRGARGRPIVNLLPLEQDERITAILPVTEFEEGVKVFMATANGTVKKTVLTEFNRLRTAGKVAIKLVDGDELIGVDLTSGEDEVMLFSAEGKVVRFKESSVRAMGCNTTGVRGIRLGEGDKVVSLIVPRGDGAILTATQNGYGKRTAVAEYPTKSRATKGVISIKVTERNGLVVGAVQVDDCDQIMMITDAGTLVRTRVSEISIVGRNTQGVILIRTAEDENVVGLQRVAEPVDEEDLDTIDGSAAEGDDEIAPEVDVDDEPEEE
T1 sequence (P0AFI2 whole entry): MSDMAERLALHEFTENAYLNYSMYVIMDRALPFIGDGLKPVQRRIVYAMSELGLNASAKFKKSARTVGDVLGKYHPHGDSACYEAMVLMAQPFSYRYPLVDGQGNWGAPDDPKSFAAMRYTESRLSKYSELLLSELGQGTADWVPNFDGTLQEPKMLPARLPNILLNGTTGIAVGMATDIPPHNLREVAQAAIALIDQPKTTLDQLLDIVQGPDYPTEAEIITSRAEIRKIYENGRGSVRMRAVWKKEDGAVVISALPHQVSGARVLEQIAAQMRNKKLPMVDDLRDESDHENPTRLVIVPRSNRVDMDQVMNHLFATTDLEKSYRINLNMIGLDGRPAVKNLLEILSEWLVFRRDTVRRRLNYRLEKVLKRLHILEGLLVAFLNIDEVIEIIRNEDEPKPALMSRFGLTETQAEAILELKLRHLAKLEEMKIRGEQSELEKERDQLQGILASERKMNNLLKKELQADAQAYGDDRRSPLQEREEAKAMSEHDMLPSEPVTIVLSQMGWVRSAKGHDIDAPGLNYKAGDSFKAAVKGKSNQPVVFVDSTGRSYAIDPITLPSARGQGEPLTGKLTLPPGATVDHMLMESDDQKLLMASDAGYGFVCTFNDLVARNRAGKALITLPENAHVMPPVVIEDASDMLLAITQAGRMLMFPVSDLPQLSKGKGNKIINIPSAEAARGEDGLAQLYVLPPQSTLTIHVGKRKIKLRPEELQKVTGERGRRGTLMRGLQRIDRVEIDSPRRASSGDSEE
T1 sequence (P20083 whole entry): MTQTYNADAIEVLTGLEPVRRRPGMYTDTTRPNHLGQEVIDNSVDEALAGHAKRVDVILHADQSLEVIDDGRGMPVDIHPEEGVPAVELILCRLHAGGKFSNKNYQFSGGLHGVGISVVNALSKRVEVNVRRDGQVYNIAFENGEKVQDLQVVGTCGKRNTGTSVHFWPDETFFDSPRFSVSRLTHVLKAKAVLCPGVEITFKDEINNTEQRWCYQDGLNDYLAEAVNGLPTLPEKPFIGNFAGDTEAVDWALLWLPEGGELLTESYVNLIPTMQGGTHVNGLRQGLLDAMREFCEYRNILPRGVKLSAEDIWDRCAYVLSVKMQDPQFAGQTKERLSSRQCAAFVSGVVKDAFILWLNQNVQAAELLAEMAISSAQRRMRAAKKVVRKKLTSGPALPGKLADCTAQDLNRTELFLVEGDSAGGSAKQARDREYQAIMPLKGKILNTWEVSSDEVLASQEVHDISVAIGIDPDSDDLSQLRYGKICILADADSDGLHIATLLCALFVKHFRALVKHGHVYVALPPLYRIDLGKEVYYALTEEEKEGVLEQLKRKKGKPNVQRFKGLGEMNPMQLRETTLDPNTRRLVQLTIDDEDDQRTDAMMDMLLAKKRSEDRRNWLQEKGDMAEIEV

SMILES	MIC E. coli R477-100 ([1]; Table 4)	MIC E. coli ATCC 25922 [2]	MIC E. coli AG100B [3, 16]	MIC E. coli AG100A [4, 16]	MIC B. subtilis ATCC 6633 [5]	MIC MRSA ATCC 43300 [6]	MIC ratio BL21/pETSACG1 to BL21 [7]	MIC BL21/pETSACG1 [7]	MIC BL21 [8]	MIC ratio XL1 blue/pET9d to XL1 blue [9]	MIC XL1 blue/pET9d [9]	MIC ratio XL1 blue/pSF815 to XL1 blue [10]	MIC XL1 blue/pSF815 [10]	MIC XL1 blue [11]	further results
NCC1OC(OC2C(C(=O)NCc3cn(Cc4cccc(CN5CCN(c6cc7c(cc6F)c(=O)c(C(=O)O)cn7C6CC6)CC5)c4)nn3)OC(OC3C(O)C(N)CC(N)C3OC3OC(CN)C(O)C(O)C3N)C2O)C(N)C(O)C1O (centres unmarked) [Compound 1o, N-((1-(3-((ciprofloxacin)methyl)benzyl)-1H-1,2,3-triazol-4-yl)-5″-methyl)neomycin carboxamide]	6 µg/mL (≈ 5.25 µM)	6 µg/mL (≈ 5.25 µM)	12 µg/mL (≈ 10.5 µM)	0.75 µg/mL (≈ 0.657 µM)	3 µg/mL (≈ 2.63 µM)	6 µg/mL (≈ 5.25 µM)	1	0.4 μg/ml	0.4 µg/mL (≈ 0.35 µM)	1	6 μg/ml	4	24 μg/ml	6 µg/mL (≈ 5.25 µM)	–
NCC1OC(OC2C(C(=O)Nc3ccc(-c4cn(CC(O)CN5CCN(c6cc7c(cc6F)c(=O)c(C(=O)O)cn7C6CC6)CC5)nn4)cc3)OC(OC3C(O)C(N)CC(N)C3OC3OC(CN)C(O)C(O)C3N)C2O)C(N)C(O)C1O (centres unmarked) [Compound 1f, N-(4-(1-(2-hydroxy-3-(ciprofloxacin)propyl)-1H-1,2,3-triazol-4-yl)-5″-phenyl)neomycin carboxamide]	6 µg/mL (≈ 5.18 µM)	3 µg/mL (≈ 2.59 µM)	6 µg/mL (≈ 5.18 µM)	0.75 µg/mL (≈ 0.648 µM)	6 µg/mL (≈ 5.18 µM)	24 µg/mL (≈ 20.7 µM)	–	–	–	–	–	–	–	–	IC50 fold superior than Cipro in TopoIV assay [12]: 19 fold; IC50 ([12]; relaxation assay, supercoiled pBR322): 580 ± 40 nM; IC50 [13]: 2200 ± 600 nM; IC50 fold superior than that of Cipro in DNA gyrase assay ([14]; general statements name DNA gyrase and TopoIV together): 18 fold; IC50 ([14]; read-out: DNA gyrase IC50, supercoiling assay, relaxed pBR322): 73 ± 5 nM
NCC1O[C@@H](O[C@H]2C(N)C[C@H](NCc3cn(CCN4CCN(c5cc6c(cc5F)c(=O)c(C(=O)O)cn6C5CC5)CC4)nn3)C(OC3O[C@@H](CO)C(O)C(N)[C@@H]3O)C2O)C(O)C(O)[C@H]1O (some centres unmarked) [Compound 11a, 4-(1-N-kanamycinmethyl)-1-(2-(ciprofloxacin)ethyl)-1H-1,2,3-triazole]	–	–	–	–	–	–	–	–	–	–	–	–	–	–	MIC ([1]; Escherichia coli, R477100, read-out: MIC E. Coli R477-100): 6 µg/mL (≈ 6.5 µM); MIC ([2]; Escherichia coli, ATCC25922, read-out: MIC E. coli 25922): 3 µg/mL (≈ 3.25 µM); MIC ([3]; Escherichia coli, AG100B, read-out: MIC E. coli AG100B, Table 6): 12 µg/mL (≈ 13 µM); MIC ([4]; Escherichia coli, AG100A, read-out: MIC E. coli AG100A, Table 6): 0.75 µg/mL (≈ 0.813 µM); MIC ([5]; Bacillus subtilis, ATCC6633, read-out: MIC Bacillus subtilis): 1.5 µg/mL (≈ 1.63 µM); MIC ([9]; Escherichia coli, XL1BLUE/PET9D, Table 6, read-out: MIC E. coli XL1 blue/pET9d-aph(3′)-Ia): 6 µg/mL (≈ 6.5 µM); MIC ([11]; Escherichia coli, XL1BLUE, Table 6, read-out: MIC E. coli XL1 blue): 6 µg/mL (≈ 6.5 µM)
NC[C@H]1O[C@H](O[C@H]2[C@H](O)[C@@H](O[C@H]3O[C@H](CO)[C@@H](O)[C@H](N)[C@H]3O)[C@H](N)C[C@@H]2N)[C@H](O)[C@@H](O)[C@@H]1O [KanA, kanamycin A, reference compound]	–	–	–	–	–	–	–	–	–	–	–	–	–	–	MIC E. coli R477-100 ([1]; Table 6): 24 µg/mL (≈ 49.5 µM); MIC E. coli 25922 ([2]; Table 6): 12 µg/mL (≈ 24.8 µM); MIC E. coli AG100B ([3]; Table 6): >384 µg/mL; MIC E. coli AG100A ([4]; Table 6): 384 µg/mL (≈ 793 µM); MIC Bacillus subtilis ([5]; Table 6): 1.5 µg/mL (≈ 3.1 µM); MIC E. coli XL1 blue/pET9d-aph(3′)-Ia ([9]; Table 6): >384 μg/ml; MIC E. coli XL1 blue ([11]; Table 6): 3 µg/mL (≈ 6.19 µM)
NCC1OC(OC2C(C(=O)NCc3cn(CC(O)CN4CCN(c5cc6c(cc5F)c(=O)c(C(=O)O)cn6C5CC5)CC4)nn3)OC(OC3C(O)C(N)CC(N)C3OC3OC(CN)C(O)C(O)C3N)C2O)C(N)C(O)C1O (centres unmarked) [Compound 1m, N-((1-(2-hydroxy-3-(ciprofloxacin)propyl)-1H-1,2,3-triazol-4-yl)-5″-methyl)neomycin carboxamide]	6 µg/mL (≈ 5.47 µM)	3 µg/mL (≈ 2.74 µM)	12 µg/mL (≈ 10.9 µM)	0.75 µg/mL (≈ 0.684 µM)	3 µg/mL (≈ 2.74 µM)	12 µg/mL (≈ 10.9 µM)	1	0.2 μg/ml	0.2 µg/mL (≈ 0.182 µM)	2	12 μg/ml	8	48 μg/ml	6 µg/mL (≈ 5.47 µM)	MIC against E. coli (pETSACG1) ([7]; molar expression of 0.2 μg/ml): 5.5 μM; Km [15]: 87 µM; Km [15, 17]: 86.8 ± 8.9 µM; kcat [15, 17]: 2.5 ± 0.1 s⁻¹
NCC1OC(OC2C(C(=O)NCc3cn(Cc4ccc(CN5CCN(c6cc7c(cc6F)c(=O)c(C(=O)O)cn7C6CC6)CC5)cc4)nn3)OC(OC3C(O)C(N)CC(N)C3OC3OC(CN)C(O)C(O)C3N)C2O)C(N)C(O)C1O (centres unmarked) [Compound 1p, N-((1-(4-((ciprofloxacin)methyl)benzyl)-1H-1,2,3-triazol-4-yl)-5″-methyl)neomycin carboxamide]	6 µg/mL (≈ 5.25 µM)	6 µg/mL (≈ 5.25 µM)	12 µg/mL (≈ 10.5 µM)	1.5 µg/mL (≈ 1.31 µM)	3 µg/mL (≈ 2.63 µM)	3 µg/mL (≈ 2.63 µM)	1	0.4 μg/ml	0.4 µg/mL (≈ 0.35 µM)	1	6 μg/ml	1	6 μg/ml	6 µg/mL (≈ 5.25 µM)	–
